Measurements taken from article PMC4450062, “A Membrane-bound eIF2 Alpha Kinase Located in Endosomes Is Regulated by Heme and Controls Differentiation and ROS Levels in Trypanosoma cruzi” (PLoS Pathogens, 2015).

Biological target: T1, GST-TcK2 (kinase domain of TcK2, T. cruzi K2) (Trypanosoma cruzi, UniProt Q4E5B6)
T1 construct: gene Tc00.1047053506559.129; N-terminal GST fusion (pGEX5X-1), GST kept, 68 kDa; E. coli BL21; transmembrane and N-terminal domains absent
T1 sequence (Q4E5B6 638-984): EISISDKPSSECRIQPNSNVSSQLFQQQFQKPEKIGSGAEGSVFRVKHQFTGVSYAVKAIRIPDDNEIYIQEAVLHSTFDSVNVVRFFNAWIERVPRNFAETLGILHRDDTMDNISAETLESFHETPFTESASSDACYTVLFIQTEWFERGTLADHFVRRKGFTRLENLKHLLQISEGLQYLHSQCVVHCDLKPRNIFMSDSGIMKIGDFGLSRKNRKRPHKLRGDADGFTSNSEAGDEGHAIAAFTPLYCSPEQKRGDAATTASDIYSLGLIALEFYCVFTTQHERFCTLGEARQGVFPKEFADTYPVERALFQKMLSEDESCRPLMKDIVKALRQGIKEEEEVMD
Assay: Soret absorbance titration at […] nm
Type: binding
Conditions: 0.1 M Tris-HCl pH 7.4, 50 mM NaCl, 25 °C, 30 min incubation; 5 μg/ml protein; GST alone shows no Soret band; read-out: Kd^app

SMILES: C=CC1=C(C)C2=Cc3c(C=C)c(C)c4[n]3[Fe]([Cl])[n]3c(c(C)c(CCC(=O)O)c3=CC3=NC(=C4)C(C)=C3CCC(=O)O)=CC1=N2 [hemin]
- Kd: 2800 ± 600 nM
